Assay results reported in patent US20070078180A1, “Methods and compositions for stabilizing an antioxidant” (priority 2005, published 2007).

What was measured:
[1] = Degradation by hydroxyl radicals from the Fenton reaction (HPLC); format: physicochemical; conditions: room temperature, one hour
Description: (§1) HPLC Analysis of CoQ10. The amount of CoQ10 remaining in degradation experiments below were determined by High Pressure Liquid Chromatography (HPLC). The column used was a Microsorb C18 reverse phase column (15 cm×0.46 cm), the mobile phase consisted of 85% methanol and 15% hexane at a flow rate of 1 ml/minute and CoQ10 was detected at […]. The instrument used was a HP 1090 gradient HPLC system with photodiode array detector and autosampler.
Methods and Materials. The following experiment examined the effect of the hydroxyl radical on CoQ10. The hydroxyl radical is a reactive oxygen species (“ROS”) produced in the human body. The radical is generated by the reaction of iron with hydrogen peroxide (commonly called the Fenton reaction).
For this experiment, CoQ10 was prepared in a solution of chloroform/ethanol (1:1) at a concentration of 10 micrograms/ml. The Fenton reaction was then initiated by the addition of hydrogen peroxide and iron (III) chloride and allowed to proceed at room temperature for one hour, at which time samples were injected on HPLC.

[2] = Oxidation of CoQ10 by sodium hypochlorite, with or without lycopene (HPLC); format: physicochemical
Description: as §1
Methods and Materials. The following experiment examined the effect of sodium hypochlorite on CoQ10.
For this experiment, CoQ10 was prepared in HPLC “mobil phase” (methanol:hexane) and incubated with different concentrations of sodium hypochlorite prepared in water/methanol. The reaction was allowed to proceed for up to 30 minutes, at which time samples were injected on HPLC.
The stock lycopene was 10 mg/ml in soybean oil. It was diluted into toluene and used in the reaction at 0.1% lycopene. To allow the CoQ10, hypochlorite aqueous solution and lycopene to react, a detergent was used to bring the polar and nonpolar phases together. The incubation lasted for 30 minutes.

[3] = Oxidation of CoQ10 by 0.03% hypochlorite, with lycopene or colorless carotenoids (HPLC); format: physicochemical; conditions: Example 7, 1.5 hours
Description: as §1
Methods and Materials. The following experiment was a comparison of the impact that colorless carotenoids or lycopene have on CoQ10 when CoQ10 is exposed to hypochlorite oxidation.
695 μg/ml of CoQ10 was prepared in chloroform/ethanol (1:1). The calculated amounts of phytoene and phytofluene used in the study was 0.0142% and 0.0012%, respectively. The calculated amount of lycopene was 2 mg/ml in chloroform. Four plates of cells were prepared and allowed to attach overnight as described above. CoQ10 was then added to each of the plates. Further, lycopene was added to one of the plates, and the carotenoids were added to another. Three plates (one of the plates containing only CoQ10 was treated as a control) were then incubated with 0.03% hypochlorite (“HOCL”) for 1.5 hours. Then the samples were removed and assayed by HPLC to determine CoQ10 levels.

[4] = Effect of UVB radiation on stability of CoQ10 in PBS buffer (HPLC); format: physicochemical
Description: (§2) HPLC Methods. To measure CoQ10 levels in tissue culture medium, an appropriate high performance liquid chromatography (“HPLC”) method had to be established.
(§3) For the instant examples, a reliable HPLC method was established for CoQ10 using an isochratic method with a mobile phase of 85% methanol and 15% hexane. CoQ10 was detected at 275 nm.
as §1
(§4) Methods and Materials. The following experiment involved examining the effect of ultraviolet radiation (“UVR”) on levels of CoQ10 in culture medium. More specifically, ultraviolet-B (“UVB,” which is ultraviolet radiation ranging from about 290 nm to about 320 nm) dose-response studies were conducted on various concentrations of CoQ10 placed in either PBS buffer or into culture media. Doses of UVB ranged from 50 mJ to 200 mJ. In the culture media, 10 μm of CoQ10 was placed in a fibroblast culture for 24 hours.

[5] = Effect of UVB radiation on stability of CoQ10 in culture with fibroblasts (HPLC); format: physicochemical; conditions: fibroblast culture, 10 μM CoQ10, 24 hours
Description: as §2, §3, §1, §4

[6] = system: MMP-1; experiment: UV-induced MMP-1 in dermal fibroblasts (ELISA); format: cell-based, human; conditions: 10 micromolar, 50 mJ UV, 24 hours
Source text: (§5) Methods and Materials. The following experiment involved examining the effect of CoQ10 on UVR-induced inflammatory mediators in human dermal fibroblasts. That is, because skin aging is known to be accelerated by inflammatory cytokines produced in the skin by UVR, this experiment assessed the ability of CoQ10 to inhibit the production of the inflammatory mediators produced in human dermal fibroblasts in response to either UVB radiation or to stimulation by IL-1, a pro-inflammatory cytokine produced in keratinocytes by UVR.
(§6) The dose of UV for stimulating the production in fibroblasts of each of the inflammatory mediators—PGE-2, IL-6, IL-8, and the matrix metalloproteinase (“MMP-1”)—was 50 mJ.
(§7) The cells were isolated and cultured as follows. […]
(§8) For the experiments, cells were seeded into 12 well culture dishes in complete growth medium at a density of 10^5 cells/well and allowed to attach overnight. […] Cells were incubated for 24 hours at 37° C., at which time the media was removed for assay and the cells counted. […]

[7] = system: IL-6; experiment: UV-induced IL-6 in dermal fibroblasts (ELISA); format: cell-based, human; conditions: 10 micromolar, 24 hours
Source text: as §5, §6, §7, §8

[8] = system: PGE-2; experiment: UV-induced PGE-2 in dermal fibroblasts (ELISA); format: cell-based, human; conditions: UVB doses of 75 mJ, 100 mJ and 125 mJ; 10 μM
Source text: as §5, with “UVR. […]” for “UVR.”
The cells were isolated and cultured as follows. The dermal fibroblasts were isolated from human neonatal foreskin and cultured in Dulbecco's modified eagle media with L-glutamine and 4.5 mM glucose and without sodium pyruvate (“DMEM”) (available from Fisher Scientific, Pittsburgh, Pa.) containing 5% horse serum (available from Hyclone, Logan, Utah), 5% fetal bovine serum (available from Hyclone), and penicillin/streptomycin (100 U/100 μg/ml). Cell cultures were grown at 37° C. in a humidified CO2 incubator (5% CO2). […]
as §8

[9] = system: PGE-2; experiment: IL-1-induced PGE-2 in dermal fibroblasts; format: cell-based, human; conditions: 24 hours
Description: The cells were isolated and cultured as follows. The dermal fibroblasts were isolated from human neonatal foreskin and cultured in Dulbecco's modified eagle media with L-glutamine and 4.5 mM glucose and without sodium pyruvate (“DMEM”) (available from Fisher Scientific, Pittsburgh, Pa.) containing 5% horse serum (available from Hyclone, Logan, Utah), 5% fetal bovine serum (available from Hyclone), and penicillin/streptomycin (100 U/100 μg/ml). Cell cultures were grown at 37° C. in a humidified CO2 incubator (5% CO2). Cells were passaged prior to confluence by removing cells with a trypsin/EDTA solution, followed by centrifugation and re-seeding.
as §8, with “overnight. The medium was then replaced with PBS for irradiation. A bank of two commercially available FS20 lamps were used for irradiation of cells.” for “overnight.”
The impact of CoQ10, colorless carotenoids, and a combination of both on PGE-2 in fibroblasts stimulated with IL-1 was examined. […] All of the plates were then incubated for 24 hours and then the media was removed from culture and cells counted.

[10] = system: MMP-1; experiment: IL-1-induced MMP-1 in dermal fibroblasts (ELISA); format: cell-based, human; conditions: Example 3; CoQ10 10 μM, 24 hours
[11] = Oxidation of CoQ10 by potassium hydroxide, with or without colorless carotenoids (HPLC); format: physicochemical; conditions: 600 μM CoQ10, 1 mM KOH, 30 minutes, room temperature
Description: as §1
Methods and Materials. The following experiment examined whether colorless carotenoids could protect CoQ10 from potassium hydroxide oxidation.
600 μM of CoQ10 was prepared in chloroform stock. 500 μg/ml of the colorless carotenoids was prepared in DMSO. The calculated amount of potassium hydroxide (“KOH”) was 1 mM. Three plates of cells were prepared and allowed to attach overnight as described above. CoQ10 was then added to each of the plates. Further, KOH was added to two of the plates (one was maintained as a control containing only CoQ10). Further, the carotenoids were added to one of the plates containing KOH. Reactions were performed in a total volume of 1 ml. The cells containing KOH were incubated for 30 minutes at room temperature with the KOH. Then the samples were removed and assayed by HPLC to determine CoQ10 levels.

[12] = Solubility of CoQ10 in solvents compatible with cultured cells; format: physicochemical
Source text: Because of the very poor solubility of CoQ10 in any solvent that is compatible with cultured cells, 10 μm of CoQ10 was the maximum final concentration that could be used in culture medium.

| reduction of amount by the Fenton reaction ([1]; hydrogen peroxide and iron (III) chloride) | stability of CoQ10 to UVB ([4]; UVB doses 50 mJ to 200 mJ) | decrease in the concentration of CoQ10 ([4]; high UVB doses, within experimental error) | amount of CoQ10 after UVB radiation [5] | abundance or structure after the Fenton reaction ([1]; 10 micrograms/ml in chloroform/ethanol (1:1)) | loss of CoQ10 caused by sodium hypochlorite ([2]; Example 5, methanol:hexane, up to 30 minutes) | loss of CoQ10 caused by hypochlorite ([3]; 695 μg/ml CoQ10, 0.03% hypochlorite) | loss of CoQ10 due to oxidation by potassium hydroxide [11] | solubility ([12]; any solvent compatible with cultured cells) | maximum final concentration that could be used in culture medium ([12]; culture medium) | Structure (SMILES) | oxidation of CoQ10 by hypochlorite in the presence of the carotenoid ([2]; Example 6, 0.1% lycopene, detergent, 30 minutes) | oxidation of CoQ10 by hypochlorite in the presence of the carotenoid ([3]; 0.03% hypochlorite, lycopene 2 mg/ml, or phytoene 0.0142% and phytofluene 0.0012%) | level of UVR-induced MMP1 [6] | level of IL-6 induced in UVR-treated fibroblasts [7] | effect on levels of PGE-2 after UVB irradiation [8] | IL-1 induction of PGE-2 ([9]; Example 2, 10 micromolar, IL-1 100 picograms/ml) | inhibition at 10 µM ([9]; Homo sapiens, Fibroblast, Example 3, CoQ10 10 μM, colorless carotenoid 15 micrograms/ml, read-out: inhibition of the IL-1 induction of PGE-2) | blocking the IL-1 induction in MMP-1 [10] |
| --- | --- | --- | --- | --- | --- | --- | --- | --- | --- | --- | --- | --- | --- | --- | --- | --- | --- | --- |
| 50% | – | – | – | – | – | – | – | – | – | CC(C)=CCC/C(C)=C/C=C/C(C)=C/C=C/C(C)=C/C=C/C=C(C)/C=C/C=C(C)/C=C/C=C(\C)CCC=C(C)C [lycopene] | significantly reduced | caused a reduction in oxidation | – | – | – | – | – | – |
| – | exhibited stability | < 10 | generally unaffected | did not cause a reduction | 50% | 60% | 80% | very poor | 10 μm | COC1=C(OC)C(=O)C(C/C=C(\C)CC/C=C(\C)CC/C=C(\C)CC/C=C(\C)CC/C=C(\C)CC/C=C(\C)CC/C=C(\C)CC/C=C(\C)CC/C=C(\C)CCC=C(C)C)=C(C)C1=O [CoQ10, coenzyme Q10] | – | – | back to near control levels | markedly lowered | only a small inhibitory effect | significant reduction | 16% | ineffective |
